What was measured:
15N-labeled HyD = target: T1, 15N-labeled HyD (Homo sapiens, UniProt P07320); experiment: NMR HSQC of 15N-labeled HyD with drug C; assay type: binding; settings: 100 μM protein, 600 μM drug C, 5% DMSO
T1 sequence (P07320 1-174): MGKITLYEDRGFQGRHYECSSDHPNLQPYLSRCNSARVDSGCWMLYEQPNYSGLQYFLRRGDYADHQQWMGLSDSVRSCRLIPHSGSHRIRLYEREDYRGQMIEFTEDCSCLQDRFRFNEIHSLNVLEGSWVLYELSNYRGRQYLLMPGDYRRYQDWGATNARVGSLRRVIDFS

HγD-ox = target: T2, HγD-ox (Homo sapiens, UniProt P07320); experiment: Thermal unfolding (Tm) of oxidized HγD; assay type: biochemical; settings: 100 μM agent, 360/320 nm ratio; 68 ± 0.07 °C without agent
T2 construct: made in house; host or cells: Escherichia coli BL21(DE3) pLysS, pET3d vector
T2 sequence (P07320 1-174): T1 sequence (P07320 1-174)
Description: In postsubmission experiments, we attempted to find mechanistic clues relevant to the use of an H2O2 oxidation step prior to the thermal stress used during the initial drug screen. For this reason, we did a comparative study of oxidized (HγD-ox) versus native HγD (HyD-nat), hypothesizing that bis-ANS would both act like the drugs and provide information on the role of exposed hydrophobicity ([40]). HγD was oxidized in diethylenetriaminepentaacetic acid […] phosphate buffer to facilitate hydroxyl radical formation and protein damage, followed by dialysis against DTPA-treated buffer to eliminate the known proaggregating effects of divalent metals ([32]) in the subsequent steps. […] Overall protective effects were more pronounced for the oxidized than nonoxidized form of HγD. […] In the hope to obtain clues on the impact of bis-ANS, drugs C, G, and M on protein aggregation status, native PAGE was performed (Fig. 3G). Polymers greater than 250 kD are present in unheated HγD-nat but only the size of 75 to 100 kD in HγD-ox. […] Other techniques will be needed to assess the relationship between drugs and aggregate size.
(§1) Thermal denaturation study was monitored using fluorescence spectroscopy. Protein solutions (10 μM) in the presence and absence of drugs or bis-ANS (100 μM) were heated continuously from 30 to 95 °C, and the fluorescence data were collected every 5 °C after 1 min equilibration at the given temperature. Unfolding data were fit to Greene and Pace’s two-state model ([82]) using GraphPad Prism software (GraphPad Software, Inc).

HγD = target: T3, HγD (Homo sapiens, UniProt P07320); settings: 600 μM drug C, tested by an outside laboratory; cited from earlier work
T3 construct: made in house; host or cells: E. coli BL21(DE3) pLysS, pET3d vector
T3 sequence (P07320 1-174): T1 sequence (P07320 1-174)

WT-HγD crystallin = target: T4, WT-HγD crystallin (Homo sapiens, UniProt P07320); experiment: Thermal unfolding of WT-HγD by fluorescence ratio (Tm); assay type: biochemical; settings: for Tm: 10 μM WT-HγD, 100 μM drug, fluorescence ratio 360/330 nm, control 81 °C; for Tm of HγD-nat: 100 μM agent, 360/320 nm ratio, 78 ± 0.1 °C without agent; for Elevation of Tm of HγD: versus control 81 °C
T4 construct: made in house; host or cells: E. coli BL21(DE3) pLysS, pET3d vector
T4 sequence (P07320 1-174): T1 sequence (P07320 1-174)
Description: His-tag free recombinant HγD crystallin produced in Escherichia coli using pET3d or pET17b expression vector was used to investigate the effects of compounds C and G against thermal-induced unfolding and aggregate formation. The antiaggregation potency of drug C and G was reconfirmed by dynamic light scattering (DLS) (Fig. 2A). […] There is a decrease in the size of aggregates from as high as 7261 nm without drugs to 30.5 nm with drug C and 84.9 nm with drug G. Drug M has moderate activity with mean aggregate size of 569 nm radius (Table S2). […] Furthermore, we investigated whether these drugs can prevent thermal unfolding of HγD (Fig. 2C). […] It is the temperature at which 50% of the protein unfolds.
as §1

[1] = tested on: Total mouse gamma crystallins; experiment: H2O2 oxidation-mediated aggregation of total mouse γ-crystallins, 600 nm; assay type: biochemical; settings: 2.5 mg/ml, H2O2, 18 h at 37 °C
Method: In preparation for possible in vivo testing, the drugs were tested against native mouse γ-crystallins. Total gamma crystallins (2.5 mg/ml) were incubated with H2O2 for 18 h at 37 °C with increasing concentrations of drugs X, C, and G, or a combination thereof. Oxidative stress–mediated aggregation at 600 nm was suppressed by drug C but poorly by drug G (Fig. S4A, left panel). […] The baseline increase at 50 μM could reflect a destabilizing effect of the drugs because of a pro-oxidative mechanism followed by stabilizing chaperone-like effect. […] There is 52.6% more aggregation of OPJ-MγS in comparison to WT-MγS under same conditions of thermal stress. […] Fluorescence microscopy using Nile Red provides a pictorial rendition of the type and size of aggregates formed on heating WT-MγS and OPJ-MγS, with and without drugs (Fig. S4F). […] The bis-ANS fluorescence inhibition pattern is again in complete agreement with the previous results for HγD (Fig. 2F). […] As for the reproducibility of these findings, see Fig. S7 and the warning note under Rigor and reproducibility section.

## Cc1cc(C(C#N)c2ccc(Cl)cc2)c(Cl)cc1NC(=O)c1cc(I)cc(I)c1O (stereo not drawn) [drug C, Closantel]
15N-labeled HyD
  HSQC spectra, drug-treated versus control sample: no significant differences
HγD-ox
  Tm of HγD-ox: increased all Tm values to the maximum value
HγD
  Effect on heat-mediated aggregation of HγD: worsening
WT-HγD crystallin
  Tm: 85 °C
  Tm of HγD-nat: increased all Tm values to the maximum value
  Elevation of Tm of HγD: 4 °C
[1]
  Oxidative stress–mediated aggregation at 600 nm: suppressed

## CC(C)=CCC[C@]1(C)C=Cc2c(O)c3c(c(CC=C(C)C)c2O1)O[C@]12C(=C[C@@H]4C[C@H]1C(C)(C)O[C@@]2(C/C=C(/C)C(=O)O)C4=O)C3=O [drug G, Gambogic acid]
HγD-ox
  Tm of HγD-ox: increased all Tm values to the maximum value
WT-HγD crystallin
  Tm: 85 °C
  Tm of HγD-nat: increased all Tm values to the maximum value
  Elevation of Tm of HγD: 4 °C
[1]
  Oxidative stress–mediated aggregation at 600 nm: poorly

— paper PMC9525908, “α-Crystallin chaperone mimetic drugs inhibit lens γ-crystallin aggregation: Potential role for cataract prevention” (The Journal of Biological Chemistry, 2022)
